Test results as given in ChEMBL document CHEMBL1201862, “PubChem BioAssay data set” (2004).
Activity calls are given as the source filed them.

Tests used:
[1] = biological target: Lysine-specific demethylase 4C (Homo sapiens, UniProt Q9H3R0); assay: GASC-1 (JMJD2C) histone demethylase inhibitors, dose response, biochemical, DELFIA europium, cherry-picked samples (AID 488835); format: functional
[2] = biological target: Transitional endoplasmic reticulum ATPase (Homo sapiens, UniProt P55072, C522A); assay: C522A mutant p97 ATPase inhibitors, dose response, counter-screen for p97 inhibitor project, biochemical, luminescence (AID 1544)
SUMO-activating enzyme = SUMO-activating enzyme (Homo sapiens, UniProt Q9UBT2); assay: inhibitors of in vitro SUMOylation cascade, primary screen, biochemical, HTRF, uHTS (AID 2006); format: protein-complex assay
[3] = biological target: Transitional endoplasmic reticulum ATPase (Homo sapiens, UniProt P55072); assay: p97 ATPase inhibitors, dose response, biochemical (AID 1534)
[4] = biological target: T1, Tyrosyl-DNA phosphodiesterase 2 (Homo sapiens, UniProt O95551); assay: human TDP2 enzyme inhibitors, dose response, biochemical, epi absorbance, IC50 (AID 743297)
T1 sequence (O95551 whole entry): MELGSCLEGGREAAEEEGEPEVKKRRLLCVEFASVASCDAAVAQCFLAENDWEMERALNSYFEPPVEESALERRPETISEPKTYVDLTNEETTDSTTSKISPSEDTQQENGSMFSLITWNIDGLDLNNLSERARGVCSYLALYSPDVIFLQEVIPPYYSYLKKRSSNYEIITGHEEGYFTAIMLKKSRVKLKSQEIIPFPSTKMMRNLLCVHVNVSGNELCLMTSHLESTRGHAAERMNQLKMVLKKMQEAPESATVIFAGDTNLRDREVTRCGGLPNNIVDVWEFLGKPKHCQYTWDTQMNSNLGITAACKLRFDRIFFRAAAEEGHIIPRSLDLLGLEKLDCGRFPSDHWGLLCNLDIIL

[5] = microbe, parasite or virus in culture; format: functional; conditions: Mycobacterium tuberculosis
[6] = biological target: T2, RNA-binding protein pos-1 (Caenorhabditis elegans, UniProt G5EF15); assay: inhibitors of POS-1/mex-3 RNA binding, dose response, biochemical, fluorescence polarization (AID 1964);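 also: purified POS-1 fused to maltose binding protein made in E. coli; potency of compounds blocking POS-1 binding to fluorescent RNA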
T2 sequence (G5EF15 whole entry): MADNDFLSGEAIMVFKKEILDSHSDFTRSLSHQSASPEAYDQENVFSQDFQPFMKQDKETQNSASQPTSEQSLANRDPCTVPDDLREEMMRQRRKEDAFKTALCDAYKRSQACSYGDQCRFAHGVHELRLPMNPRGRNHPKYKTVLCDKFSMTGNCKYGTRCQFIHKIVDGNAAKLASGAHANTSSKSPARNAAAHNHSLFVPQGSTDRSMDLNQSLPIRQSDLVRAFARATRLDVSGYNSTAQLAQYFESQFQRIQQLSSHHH

[7] = biological target: T3, Zinc finger protein mex-5 (Caenorhabditis elegans, UniProt Q9XUB2); assay: MEX-5/TCR-2 RNA interaction inhibitors, dose response, biochemical, C. elegans, fluorescence polarization (AID 1960)
T3 sequence (Q9XUB2 whole entry): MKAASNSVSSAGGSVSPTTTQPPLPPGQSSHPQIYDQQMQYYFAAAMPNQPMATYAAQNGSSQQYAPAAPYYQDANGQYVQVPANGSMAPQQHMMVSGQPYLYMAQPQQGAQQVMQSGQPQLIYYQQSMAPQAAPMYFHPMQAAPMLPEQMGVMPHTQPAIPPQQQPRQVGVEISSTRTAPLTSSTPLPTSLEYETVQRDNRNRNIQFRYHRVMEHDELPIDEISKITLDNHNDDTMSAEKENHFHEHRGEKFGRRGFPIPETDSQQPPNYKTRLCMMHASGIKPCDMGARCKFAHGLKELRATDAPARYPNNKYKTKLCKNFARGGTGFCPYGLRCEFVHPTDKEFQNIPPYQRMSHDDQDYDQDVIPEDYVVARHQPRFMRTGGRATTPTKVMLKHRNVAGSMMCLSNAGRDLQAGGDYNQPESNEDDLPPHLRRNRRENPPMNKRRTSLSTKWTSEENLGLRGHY

[8] = biological target: G2/mitotic-specific cyclin-B1 (Homo sapiens, UniProt P14635); assay: Counterscreen assay for inhibitors of Wee1 degradation: dose response cell-based assay to identify inhibitors of cyclin B degradation. [Related pubchem assays: 1410, 1321 ]; format: functional
[9] = biological target: Heat shock protein HSP 90-alpha (Homo sapiens, UniProt P07900); format: functional, organism-based
Escherichia coli [10] = assay: microbe, parasite or virus in culture
Escherichia coli [11] = assay: microbe, parasite or virus in culture; remark: listed apart in the source
[12] = biological target: Bifunctional protein GlmU (Mycobacterium tuberculosis, UniProt P9WMN3); assay: Inhibitors of Mycobacterial Glucosamine-1-phosphate acetyl transferase (GlmU). Secondary screen.; set-up: species or system Mycobacterium tuberculosis H37Rv
cells = format: functional, cell-based
HEK293 [13] = assay: inhibitors of LMP1-driven NF-kB reporter, dose response, cell-based, HEK293, luciferase, cherry-pick (AID 588343); format: functional; conditions: Homo sapiens
[14] = C. albicans growth with fluconazole, confirmation, fluorescence, retest (AID 2467); format: functional, cell-based
Streptococcus = assay: Group A Streptococcus viability loss, dose response, counter-screen for streptokinase expression inhibitor project, luminescence, BacTiterGlo (AID 1915); format: functional, organism-based;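 also: potency for reduction of bacterial viability or growth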
Paired box protein Pax-8 = Paired box protein Pax-8 (Homo sapiens, UniProt Q06710); assay: inhibitors of PAX8-driven TPO luciferase reporter, dose response, RMG-I cells, cherry-pick (AID 687027); format: functional, cell-based;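 also: luciferase reporter driven by Pax8 target thyroperoxidase promoter measured by SteadyGlo luminescence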
[15] = NIH-3T3 fibroblast cytotoxicity, dose response, cytotoxicity control, cell-based, fluorescence, Alamar Blue, secondary assay (AID 2327); format: functional;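 also: NIH-3T3 mouse fibroblasts cultured with fluconazole at 8 µg/mL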
[16] = test system: Streptococcus sp. 'group A'; assay: growth inhibition of control SK(-) GAS strain, dose response, counter-screen for streptokinase expression inhibitor project, luminescence, kanamycin, BacTiterGlo, confirmation (AID 1900); format: functional, organism-based
[17] = inhibitors of intracellular T. cruzi replication, confirmation, NIH3T3 host cells, beta-gal luminescence (AID 2044); format: functional, cell-based;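 also: intracellular parasites grown in NIH/3T3 mouse fibroblasts as host cells; luminescent beta-galactosidase reporter signal from transgenic T. cruzi replicating inside host cells; inhibitors lower the luminescence signal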
Fatty acid synthase = Fatty acid synthase (Homo sapiens, UniProt P49327); assay: FAS thioesterase domain inhibitors, dose response, biochemical, endpoint fluorescence intensity, uHTS hits (AID 624327); format: functional;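 also: fluorescence from hydrolysis of an O-methyl fluorescein acyl ester substrate by the enzyme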
HEK293 [18] = assay: Fluorescence-based counterscreen for potentiators or agonists of NPY-Y2: cell-based high-throughput dose response assay to identify inhibitors of cyclic nucleotide gated ion channel (CNGC) activity. In this assay, the parental HEK293 cell line transfected with a cyclic-nucleotide gated ion channel (CNGC)-based cAMP sensor is used to measure inhibition of isoproterenol-induced CNGC activity by test compound.; format: functional; conditions: Homo sapiens
[19] = HeLa 2N DNA content increase, dose response, cell-based, IC50 (AID 1117349); format: functional
[20] = biological target: Eukaryotic translation initiation factor 4E (Mus musculus, UniProt P63073); assay: eIF4E–eIF4G protein interaction inhibitors, dose response, biochemical, TR-FRET (AID 855); format: functional;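 also: potency for disrupting eIF4E binding to eIF4GI seen as loss of FRET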
[21] = cytotoxicity toward Colo320 cells – cell-based, CellTiter-Glo luminescence, IC50, dose response (AID 1117334); format: functional; conditions: COLO 320
[22] = biological target: Small ubiquitin-related modifier 2 (Homo sapiens, UniProt P61956); assay: SUMO2–SIM peptide binding inhibitors, dose response, selectivity assay for SUMO1 interaction inhibitor project, biochemical, fluorescence polarization, uHTS hits (AID 624385); format: functional; conditions: read-out: IC50_Mean
Sequence of Small ubiquitin-related modifier 2 (P61956 whole entry): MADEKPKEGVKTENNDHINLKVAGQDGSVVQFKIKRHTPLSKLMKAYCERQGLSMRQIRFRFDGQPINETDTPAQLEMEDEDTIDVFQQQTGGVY

Sequence of Transitional endoplasmic reticulum ATPase (Homo sapiens, UniProt P55072) (P55072 whole entry): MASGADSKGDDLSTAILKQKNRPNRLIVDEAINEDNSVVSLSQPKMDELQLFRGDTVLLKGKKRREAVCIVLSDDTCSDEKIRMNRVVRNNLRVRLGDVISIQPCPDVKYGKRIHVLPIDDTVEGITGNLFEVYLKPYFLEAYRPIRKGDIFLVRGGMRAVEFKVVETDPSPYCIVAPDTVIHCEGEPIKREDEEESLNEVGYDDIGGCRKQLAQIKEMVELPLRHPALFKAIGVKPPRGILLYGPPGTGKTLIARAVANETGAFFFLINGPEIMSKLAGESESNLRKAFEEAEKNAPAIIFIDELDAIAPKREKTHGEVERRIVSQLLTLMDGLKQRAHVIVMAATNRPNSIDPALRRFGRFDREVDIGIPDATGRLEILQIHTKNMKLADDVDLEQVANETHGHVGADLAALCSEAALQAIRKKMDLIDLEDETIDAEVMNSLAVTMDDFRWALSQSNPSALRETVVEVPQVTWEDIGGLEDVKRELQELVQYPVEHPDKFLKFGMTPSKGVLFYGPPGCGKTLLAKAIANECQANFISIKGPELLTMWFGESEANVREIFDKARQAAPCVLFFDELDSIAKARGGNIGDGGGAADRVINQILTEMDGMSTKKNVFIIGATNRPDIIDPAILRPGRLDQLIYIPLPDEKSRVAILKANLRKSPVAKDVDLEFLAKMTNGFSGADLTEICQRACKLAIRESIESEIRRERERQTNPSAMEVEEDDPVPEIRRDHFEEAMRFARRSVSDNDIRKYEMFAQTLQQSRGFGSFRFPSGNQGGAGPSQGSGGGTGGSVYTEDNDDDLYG
Sequence of Transitional endoplasmic reticulum ATPase (Homo sapiens, UniProt P55072, C522A) (P55072 2-806 C522A limits assumed): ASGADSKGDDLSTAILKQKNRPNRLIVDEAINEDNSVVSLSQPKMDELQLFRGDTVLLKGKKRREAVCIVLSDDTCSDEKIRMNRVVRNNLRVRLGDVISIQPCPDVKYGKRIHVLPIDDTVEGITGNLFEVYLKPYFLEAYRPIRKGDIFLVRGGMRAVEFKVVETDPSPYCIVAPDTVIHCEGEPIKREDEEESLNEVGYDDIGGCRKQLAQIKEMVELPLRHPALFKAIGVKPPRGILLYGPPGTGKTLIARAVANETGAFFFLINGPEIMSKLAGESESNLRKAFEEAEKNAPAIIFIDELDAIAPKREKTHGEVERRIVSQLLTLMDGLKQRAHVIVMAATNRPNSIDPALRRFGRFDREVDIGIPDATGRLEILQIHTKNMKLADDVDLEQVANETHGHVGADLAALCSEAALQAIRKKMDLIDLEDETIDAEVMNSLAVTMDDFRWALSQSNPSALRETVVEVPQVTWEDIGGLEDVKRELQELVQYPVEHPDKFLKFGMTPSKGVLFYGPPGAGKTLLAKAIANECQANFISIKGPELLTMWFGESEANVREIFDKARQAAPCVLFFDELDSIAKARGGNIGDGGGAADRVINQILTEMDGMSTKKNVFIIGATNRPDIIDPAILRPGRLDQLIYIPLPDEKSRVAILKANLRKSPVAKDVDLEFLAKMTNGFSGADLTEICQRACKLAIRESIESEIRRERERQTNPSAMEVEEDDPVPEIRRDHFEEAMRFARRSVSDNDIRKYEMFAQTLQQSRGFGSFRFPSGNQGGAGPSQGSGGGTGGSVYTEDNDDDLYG
Sequence of Paired box protein Pax-8 (Q06710 whole entry): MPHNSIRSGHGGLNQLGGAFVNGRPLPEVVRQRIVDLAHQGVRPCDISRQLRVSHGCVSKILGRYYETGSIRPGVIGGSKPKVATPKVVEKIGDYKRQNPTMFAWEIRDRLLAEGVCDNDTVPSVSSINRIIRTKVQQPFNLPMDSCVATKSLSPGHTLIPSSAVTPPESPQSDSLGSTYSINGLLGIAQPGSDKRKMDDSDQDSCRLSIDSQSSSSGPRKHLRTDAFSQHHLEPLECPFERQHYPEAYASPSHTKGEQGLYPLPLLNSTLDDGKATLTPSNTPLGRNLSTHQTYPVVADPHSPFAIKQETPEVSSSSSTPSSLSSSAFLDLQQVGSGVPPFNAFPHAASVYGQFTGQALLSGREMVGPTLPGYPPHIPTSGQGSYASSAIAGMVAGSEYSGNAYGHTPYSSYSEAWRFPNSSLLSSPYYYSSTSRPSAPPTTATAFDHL
Sequence of Fatty acid synthase (P49327 whole entry, the tested form may be a part): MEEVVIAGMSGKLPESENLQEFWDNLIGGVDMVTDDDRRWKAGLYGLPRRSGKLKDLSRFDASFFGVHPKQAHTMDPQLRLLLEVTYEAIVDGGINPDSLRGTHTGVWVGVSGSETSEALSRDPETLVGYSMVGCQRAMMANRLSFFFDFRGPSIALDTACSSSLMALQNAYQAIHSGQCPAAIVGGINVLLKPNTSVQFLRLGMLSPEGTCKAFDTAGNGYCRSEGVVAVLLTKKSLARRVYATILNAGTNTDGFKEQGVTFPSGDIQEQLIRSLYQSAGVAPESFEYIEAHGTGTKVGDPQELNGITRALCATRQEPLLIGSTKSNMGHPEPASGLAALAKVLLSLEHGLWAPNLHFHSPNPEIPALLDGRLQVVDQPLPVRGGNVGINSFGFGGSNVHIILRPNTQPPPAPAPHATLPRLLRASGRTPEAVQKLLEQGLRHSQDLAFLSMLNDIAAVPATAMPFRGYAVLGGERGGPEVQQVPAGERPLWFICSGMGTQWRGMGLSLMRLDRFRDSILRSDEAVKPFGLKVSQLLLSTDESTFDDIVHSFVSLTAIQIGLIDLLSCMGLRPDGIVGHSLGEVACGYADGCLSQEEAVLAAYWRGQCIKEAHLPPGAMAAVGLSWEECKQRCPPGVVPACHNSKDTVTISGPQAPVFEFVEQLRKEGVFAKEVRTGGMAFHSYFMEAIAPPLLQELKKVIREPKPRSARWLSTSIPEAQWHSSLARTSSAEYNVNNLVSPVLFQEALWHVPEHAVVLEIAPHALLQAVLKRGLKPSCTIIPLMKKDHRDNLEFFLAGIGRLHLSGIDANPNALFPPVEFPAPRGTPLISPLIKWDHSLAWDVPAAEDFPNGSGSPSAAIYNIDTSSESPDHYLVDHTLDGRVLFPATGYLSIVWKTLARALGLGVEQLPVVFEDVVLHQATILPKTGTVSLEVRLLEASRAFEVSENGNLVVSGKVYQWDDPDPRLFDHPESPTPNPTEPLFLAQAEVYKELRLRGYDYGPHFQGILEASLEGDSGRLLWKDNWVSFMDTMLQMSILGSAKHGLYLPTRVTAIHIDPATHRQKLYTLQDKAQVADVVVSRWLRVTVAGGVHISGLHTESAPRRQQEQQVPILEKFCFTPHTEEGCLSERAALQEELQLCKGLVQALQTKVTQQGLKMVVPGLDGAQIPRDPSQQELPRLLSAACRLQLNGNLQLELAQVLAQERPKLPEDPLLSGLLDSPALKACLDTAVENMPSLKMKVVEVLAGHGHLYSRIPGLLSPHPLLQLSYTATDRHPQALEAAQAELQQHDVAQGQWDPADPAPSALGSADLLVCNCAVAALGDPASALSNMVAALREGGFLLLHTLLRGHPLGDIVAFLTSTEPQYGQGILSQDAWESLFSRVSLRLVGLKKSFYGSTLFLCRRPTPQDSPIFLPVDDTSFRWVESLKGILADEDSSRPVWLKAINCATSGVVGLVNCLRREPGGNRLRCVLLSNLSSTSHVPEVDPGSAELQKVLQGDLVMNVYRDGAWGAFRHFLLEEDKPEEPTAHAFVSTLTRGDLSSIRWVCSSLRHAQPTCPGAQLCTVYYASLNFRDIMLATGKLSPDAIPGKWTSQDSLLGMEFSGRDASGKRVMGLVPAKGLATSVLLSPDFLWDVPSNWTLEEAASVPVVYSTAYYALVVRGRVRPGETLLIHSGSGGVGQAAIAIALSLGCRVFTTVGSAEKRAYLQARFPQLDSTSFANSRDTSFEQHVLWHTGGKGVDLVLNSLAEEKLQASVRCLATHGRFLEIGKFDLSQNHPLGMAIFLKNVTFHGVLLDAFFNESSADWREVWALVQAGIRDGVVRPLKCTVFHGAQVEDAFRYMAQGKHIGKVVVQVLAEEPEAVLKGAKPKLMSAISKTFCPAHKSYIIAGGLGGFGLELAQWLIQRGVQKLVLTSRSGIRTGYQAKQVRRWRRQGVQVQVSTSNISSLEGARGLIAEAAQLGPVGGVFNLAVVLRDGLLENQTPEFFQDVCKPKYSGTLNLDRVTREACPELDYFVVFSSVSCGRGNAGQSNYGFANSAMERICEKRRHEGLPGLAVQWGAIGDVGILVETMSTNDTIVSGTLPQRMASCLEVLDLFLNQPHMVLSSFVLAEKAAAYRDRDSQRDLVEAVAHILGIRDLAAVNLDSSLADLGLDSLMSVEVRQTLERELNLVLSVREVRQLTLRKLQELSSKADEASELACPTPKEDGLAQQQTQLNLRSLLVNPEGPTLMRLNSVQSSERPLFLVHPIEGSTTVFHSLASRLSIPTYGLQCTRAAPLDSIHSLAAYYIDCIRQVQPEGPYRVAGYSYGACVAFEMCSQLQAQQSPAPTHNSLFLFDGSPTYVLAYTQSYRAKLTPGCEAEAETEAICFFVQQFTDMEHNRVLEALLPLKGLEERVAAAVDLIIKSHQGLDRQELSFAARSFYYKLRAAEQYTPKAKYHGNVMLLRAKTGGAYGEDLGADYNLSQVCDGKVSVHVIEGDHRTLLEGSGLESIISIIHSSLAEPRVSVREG
Sequence of G2/mitotic-specific cyclin-B1 (P14635 whole entry): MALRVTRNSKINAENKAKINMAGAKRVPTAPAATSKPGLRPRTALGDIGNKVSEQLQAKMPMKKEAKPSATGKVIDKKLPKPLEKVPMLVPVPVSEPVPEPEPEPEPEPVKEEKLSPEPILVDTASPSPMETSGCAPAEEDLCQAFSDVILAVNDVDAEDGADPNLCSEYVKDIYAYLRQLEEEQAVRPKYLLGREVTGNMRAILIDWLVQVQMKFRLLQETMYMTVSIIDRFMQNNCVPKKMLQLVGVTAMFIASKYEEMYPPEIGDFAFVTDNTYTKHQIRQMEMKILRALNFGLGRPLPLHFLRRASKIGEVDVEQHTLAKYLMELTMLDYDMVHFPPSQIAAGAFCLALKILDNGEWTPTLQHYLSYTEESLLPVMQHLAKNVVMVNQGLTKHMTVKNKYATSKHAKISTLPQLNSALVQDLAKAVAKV

## N#Cc1c(N2CCCCC2)nc(N)c2c(N)nc(SCC(=O)O)cc12
[1]
  AC50: 5.4 µM (active)
[2]
  IC50: > 50 µM (not active)
SUMO-activating enzyme
  IC50: 3.92 µM (active)
[3]
  IC50: > 50 µM (not active)

## CC1(C)Cc2ccccc2C2=NNC(=O)C2=N1
[4]
  IC50: 22.9 µM (inactive)
[5]
  CC50: 31.2 µM (active)

## CCc1ccc(S(=O)(=O)Nc2cc(SCC(=O)O)c(O)c3ccccc23)cc1
[4]
  IC50: 85.9 µM (inactive)
[6]
  EC50: 35.5 µM (active)
[7]
  EC50: 11.5 µM (active)

## O=[N+]([O-])c1ccc(Sc2cccc[n+]2[O-])c2nonc12
[8]
  EC50: > 49.7 µM (not active)
[9]
  AC50: 3.91 µM (active)
Escherichia coli [10]
  AC50: 5.53 µM (active)
Escherichia coli [11]
  AC50: 8.5 µM (active)
[12]
  IC50: 72.6 µM (active)

## CCCC(=O)NC(c1ccc(C(C)C)cc1)c1ccc2cccnc2c1O (stereo not drawn)
cells
  EC50: 3.8 µM (active)
HEK293 [13]
  AC50: 5.04 µM (active)
[14]
  EC50: 0.621 µM (active)
Streptococcus
  EC50: 6.95 µM (active)
Paired box protein Pax-8
  AC50: 1.21 µM (active)
[15]
  EC50: 22.1 µM (inconclusive)
[16]
  EC50: 2.55 µM (active)
[17]
  EC50: 0.227 µM (active)

## Oc1c(Cl)cc(Cl)c(Cl)c1Cc1c(O)c(Cl)cc(Cl)c1Cl [HEXACHLOROPHENE]
Fatty acid synthase
  IC50: 7.79 µM (active)
[6]
  EC50: 45.4 µM (inconclusive)
[7]
  EC50: 19.1 µM (inconclusive)
[14]
  EC50: > 38 µM (not active)
Streptococcus
  EC50: 0.262 µM (active)
[2]
  IC50: > 50 µM (not active)
[9]
  AC50: 0.77 µM (active)
HEK293 [18]
  EC50: > 11.8 µM (not active)
[19]
  IC50: > 10 µM (inactive)
Paired box protein Pax-8
  AC50: 3.3 µM (active)
[20]
  IC50: 17.9 µM (active)
[15]
  EC50: 16.2 µM (active)
[21]
  IC50: 0.0572 µM (active)
[16]
  EC50: 0.244 µM (active)
[3]
  IC50: 5.49 µM (active)
[22]
  IC50: 8.49 µM (active)
